The results in this text go back to PubChem BioAssay (NCI).

Among the test systems are A498 renal; BT-549 breast; DU-145 prostate; MDA-MB-435; NCI-H226 lung; NCI-H522 lung; OVCAR-4 ovarian; OVCAR-8 ovarian; SF-539 CNS; SK-OV-3 ovarian.
Experiment in all cases: inhibition of tumour cell growth, NCI panel, 48 h

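How tested: cells in 96-well plates exposed to compound for 48 hours at five concentrations. At the GI50, growth is halved. The concentration for full growth arrest is given as TGI.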

For the molecule `COc1ccc(OCC(O)CN2CCN(c3ccc(Cl)cc3)CC2)cc1` (stereo not given), the GI50 in the assay on A498 renal is more than 100 µM; in the assay on BT-549 breast, more than 100 µM; with DU-145 prostate it was more than 100 µM; in the assay with MDA-MB-435 it was more than 100 µM; with NCI-H226 lung it was 37.9 µM; in the assay on NCI-H522 lung, 69.3 µM. Further, the GI50 was more than 100 µM in the assay with OVCAR-4 ovarian, 88.5 µM in the assay with OVCAR-8 ovarian, more than 100 µM in the assay with SF-539 CNS and more than 100 µM in the assay on SK-OV-3 ovarian. Also, the TGI in the assay with A498 renal, in the assay with BT-549 breast, in the assay with DU-145 prostate, in the assay with MDA-MB-435, in the assay with NCI-H226 lung and with NCI-H522 lung was more than 100 µM each time. The TGI with OVCAR-4 ovarian, with OVCAR-8 ovarian, in the assay on SF-539 CNS and in the assay with SK-OV-3 ovarian was more than 100 µM in each case.

In the case of `Cc1ccc(S(=O)(=O)N2CCC(C(=O)O)(c3ccccc3)CC2)cc1`, the TGI in the assay with A498 renal, with BT-549 breast, in the assay on DU-145 prostate, with MDA-MB-435, in the assay with NCI-H226 lung and in the assay on NCI-H522 lung was more than 100 µM in each case. Further, the TGI in the assay on OVCAR-4 ovarian, in the assay with OVCAR-8 ovarian, in the assay on SF-539 CNS and with SK-OV-3 ovarian was more than 100 µM in each case.

With `CCN1CCN(c2nc(NNC(=O)c3ccccc3)nc(N3CCN(C(c4ccccc4)c4ccccc4)CC3)n2)CC1`, the GI50 was 6.3 µM in the assay on A498 renal; 2.49 µM with BT-549 breast; 8.11 µM in the assay on DU-145 prostate; 1.94 µM in the assay on MDA-MB-435; 11.9 µM in the assay on NCI-H226 lung; 2.69 µM in the assay on NCI-H522 lung. The GI50 with OVCAR-4 ovarian was 5.39 µM; in the assay with OVCAR-8 ovarian, 3.58 µM; in the assay with SF-539 CNS, 1.84 µM; in the assay with SK-OV-3 ovarian, 5.93 µM. The TGI in the assay on A498 renal is 27.1 µM; in the assay on BT-549 breast, 7.6 µM; in the assay with DU-145 prostate, 26.5 µM; in the assay on MDA-MB-435, 3.78 µM; in the assay with NCI-H226 lung, 29.5 µM; in the assay on NCI-H522 lung, 7.65 µM. Further, the TGI in the assay on OVCAR-4 ovarian is 26.1 µM; in the assay on OVCAR-8 ovarian it was 19.5 µM; in the assay on SF-539 CNS it was 3.45 µM; in the assay with SK-OV-3 ovarian, 22.1 µM.

For `COC(=O)[C@H](Cc1cn(C)cn1)NC(=O)[C@@H](NC(=O)Nc1cc(C(F)(F)F)cc(C(F)(F)F)c1)C(C)C`, the GI50 was more than 10 µM in the assay on A498 renal; 2.51 µM with BT-549 breast; more than 10 µM in the assay with DU-145 prostate; 6.11 µM in the assay with MDA-MB-435; more than 10 µM with NCI-H226 lung; 1.71 µM with NCI-H522 lung. In addition, the GI50 in the assay with OVCAR-4 ovarian is 4.58 µM; in the assay on OVCAR-8 ovarian it was 2.16 µM; in the assay on SF-539 CNS it was more than 10 µM; in the assay with SK-OV-3 ovarian, more than 10 µM. Further, the TGI was more than 10 µM with A498 renal; 7.9 µM in the assay on BT-549 breast; more than 10 µM in the assay with DU-145 prostate; more than 10 µM in the assay on MDA-MB-435; more than 10 µM in the assay on NCI-H226 lung; 3.66 µM in the assay with NCI-H522 lung. In addition, the TGI in the assay with OVCAR-4 ovarian is more than 10 µM; in the assay on OVCAR-8 ovarian, 5.22 µM; in the assay on SF-539 CNS it was more than 10 µM; with SK-OV-3 ovarian, more than 10 µM.

In the case of `COc1ccc(/C(CC2OC(=O)c3ccccc32)=N\NC(N)=O)cc1` (stereo not given), the TGI with A498 renal, in the assay on BT-549 breast, in the assay with DU-145 prostate, in the assay on MDA-MB-435, in the assay on NCI-H226 lung and in the assay with NCI-H522 lung was more than 100 µM throughout. Besides, the TGI in the assay with OVCAR-4 ovarian, with OVCAR-8 ovarian, with SF-539 CNS and in the assay on SK-OV-3 ovarian was more than 100 µM in each case.

Consider `O=c1[nH]c2ccc([N+](=O)[O-])c(Cl)c2c2ccccc12`, for which the TGI in the assay with A498 renal was found to be 80.2 µM; in the assay on BT-549 breast, 21.2 µM; in the assay with DU-145 prostate, 11.7 µM; in the assay on MDA-MB-435, 7.6 µM; with NCI-H226 lung, 43.9 µM; in the assay with NCI-H522 lung, 11.7 µM. In addition, the TGI is 24.7 µM in the assay on OVCAR-4 ovarian, 3.56 µM in the assay with OVCAR-8 ovarian, 4.64 µM with SF-539 CNS and 4.86 µM with SK-OV-3 ovarian.

On to `COc1cc(N(CCC#N)CCC#N)ccc1/C(N=Nc1ccc(C(=O)O)cc1)=N/NC(=O)c1cc(Br)ccc1O`, for which the GI50 was more than 150 µg/mL with A498 renal; more than 150 µg/mL in the assay on BT-549 breast; more than 150 µg/mL with DU-145 prostate; more than 150 µg/mL with MDA-MB-435; 53.2 µg/mL in the assay with NCI-H226 lung; 110 µg/mL in the assay on NCI-H522 lung. Besides, the GI50 in the assay on OVCAR-4 ovarian was 30 µg/mL; with OVCAR-8 ovarian, 50.6 µg/mL; in the assay on SF-539 CNS, 85.8 µg/mL; in the assay with SK-OV-3 ovarian, 86.2 µg/mL. For the same molecule, the TGI with A498 renal, in the assay with BT-549 breast, in the assay on DU-145 prostate, in the assay with MDA-MB-435, in the assay on NCI-H226 lung and in the assay on NCI-H522 lung was more than 150 µg/mL each time. The TGI in the assay on OVCAR-4 ovarian was 65.5 µg/mL; in the assay with OVCAR-8 ovarian, more than 150 µg/mL; in the assay on SF-539 CNS, more than 150 µg/mL; with SK-OV-3 ovarian, more than 150 µg/mL.

As to `Cn1ccnc1C(=O)/C=C/c1ccc(C(=O)Nc2c(F)c(F)c(F)c(F)c2F)cc1`, the GI50 with A498 renal was 1.36 µM; in the assay with BT-549 breast it was 1.43 µM; in the assay with DU-145 prostate, 1.64 µM; in the assay on MDA-MB-435, 2.02 µM; in the assay on NCI-H226 lung it was 2.7 µM; in the assay with NCI-H522 lung, 1.8 µM. Besides, the GI50 with OVCAR-4 ovarian is 1.53 µM; in the assay with OVCAR-8 ovarian, 1.72 µM; in the assay on SF-539 CNS it was 1.67 µM; in the assay with SK-OV-3 ovarian, 3.24 µM. Besides, the TGI with A498 renal is 3.16 µM; in the assay on BT-549 breast it was 2.75 µM; with DU-145 prostate, 3.11 µM; in the assay with MDA-MB-435, 4.68 µM; with NCI-H226 lung, 8.49 µM; with NCI-H522 lung, 3.96 µM. Further, the TGI with OVCAR-4 ovarian was 4.52 µM; in the assay with OVCAR-8 ovarian, 4.04 µM; in the assay on SF-539 CNS, 3.13 µM; with SK-OV-3 ovarian, 10.1 µM.

As for `COc1cc(/C=C\c2cc(OC)c(OC)c(OC)c2)cc(NS(=O)(=O)c2ccc(Cl)cc2)c1OC`, the GI50 in the assay on A498 renal was 0.179 µM; in the assay with BT-549 breast, 0.966 µM; with DU-145 prostate, 0.507 µM; in the assay with MDA-MB-435, 0.188 µM; in the assay with NCI-H226 lung, 13.5 µM; in the assay on NCI-H522 lung, 0.209 µM. Moreover, the GI50 with OVCAR-4 ovarian is 1.53 µM; in the assay on OVCAR-8 ovarian, 0.6 µM; with SF-539 CNS, 0.303 µM; in the assay on SK-OV-3 ovarian it was 0.449 µM. In addition, the TGI is 0.832 µM in the assay with A498 renal; 77 µM in the assay on BT-549 breast; more than 100 µM in the assay on DU-145 prostate; 0.44 µM in the assay with MDA-MB-435; more than 100 µM in the assay on NCI-H226 lung; 0.87 µM in the assay with NCI-H522 lung. Also, the TGI with OVCAR-4 ovarian was more than 100 µM; in the assay on OVCAR-8 ovarian it was more than 100 µM; in the assay on SF-539 CNS, 2.58 µM; in the assay with SK-OV-3 ovarian, more than 100 µM.
